# Results as given in patent US11220668B2, “Method for reducing the trisulfide level in proteins” (Merck Patent GmbH, priority 2016, dated 2022).
# Tested on: Recombinant CHO cells expressing an IgG1
# Assay: Fed-batch process with SSC feed; relative quantification of trisulfide linked peptides in IgG by LC-MS peptide mapping
# Type: cell-based
# Details: for mean reduction of trisulfide, LC-HC linked peptides: SSC feed (15 mM in main feed) compared to control condition with cysteine in separate feed; for mean reduction of trisulfide, linkage between cysteine 259 and cysteine 319 in the heavy chain: SSC feed compared to control condition with cysteine in separate feed
# Protocol: Recombinant CHO cells expressing an IgG1 were grown in fully chemically defined basal media (Cellvento® CHO 220) containing 1.5 mM cysteine. At days 3, 5, 7, 10, 14; feed(s) containing either cysteine or S-sulfocysteine were added.
# For the control condition, the main feed included vitamins, trace elements and amino acid except cysteine because of the low stability of this amino acid. 150 mM of cysteine was dissolved in a separate feed at pH 11. The main feed was added at 3%, 6%, 6%, 6% and 6% (v/v) whereas cysteine was added at 0.3%, 0.6%, 0.6%, 0.6% and 0.6% on day 3, 5, 7, 10 and 14, respectively.
# For the SSC condition, the main feed included the same vitamins, trace elements and amino acids and was further supplemented with 15 mM of S-sulfocysteine di-sodium salt. The main feed was added 3%, 6%, 6%, 6% and 6% (v/v) day 3, 5, 7, 10 and 14 respectively, resulting in the same amount of cysteine source when compared to the control condition. Glucose was monitored on a daily basis for both conditions and adjusted to 6 g/L using a 400 g/L solution.
# The process was performed in 1.2 L bioreactors at 37° C., pH 7.0, 50% dissolved oxygen, agitation 140 rpm.
# Samples were taken from the bioreactors for the trisulfide analysis on day 13 and day 18. After sampling, cell culture supernatant was centrifuged 5 min at 1500 rpm, the IgG concentration was quantified using an automatic turbidometric method (Cedex bioHT) and frozen for further processing.
# IgG were purified from the frozen samples using protein A binding (Phytips method) and were eluted in 200 mM NAH2PO4; 140 mM NaCl and 96 mM Tris HCl and quantified again.
# First, the free cysteines in the samples were alkylated by addition of N-ethylmaleiimide (10 mM solution in 0.1 M Na acetate buffer pH 5.0) for 30 min in the dark.
# For digestion with Lys-C, 55 μL digestion buffer (8 M urea, 0.1 M Tris, pH 7) and 15 μL Lys-C enzyme (Promega, V1671) were added and the samples were incubated for 4 hours at 37° C. Subsequently, the samples were diluted to 1 M urea by addition of […] and were digested by addition of 12 μL trypsin over night at 37° C. The final antibody concentration was 50 mg/L. For the analysis of the disulfide and trisulfide bonds, the sample was treated with 10% formic acid (4.4 μL) to stop the digestion and analyzed by LC-MS.
# The peptide mixture obtained was injected and separated using reversed phase HPLC (RSLC3000 nano LC, Thermo Scientific Dionex, Idstein, Germany). A nanoLC column (Acquity UPLC M-Class HSS T3, 1.8 μm, 75 μm×150 mm, Waters) with a cartridge (PM100, C18, 5 μm, 0.3×5 mm, Thermo Scientific Dionex, Idstein, Germany) was used for preconcentration and separation of the sample. Blank runs and column wash runs were performed within consecutive sample runs. […]
smiles,measurement,setting,value
"N[C@@H](CSS(=O)(=O)[O-])C(=O)[O-].[Na+].[Na+] [SSC, S-sulfocysteine di-sodium salt]","mean reduction of trisulfide, LC-HC linked peptides",day 13 of fed-batch,93.3%
same,"mean reduction of trisulfide, linkage between cysteine 259 and cysteine 319 in the heavy chain",day 13 of fed-batch,46.7%
same,"mean reduction of trisulfide, LC-HC linked peptides",day 18 of fed-batch,92.4%
same,"mean reduction of trisulfide, linkage between cysteine 259 and cysteine 319 in the heavy chain",day 18 of fed-batch,25.9%
